Our source for the IC50, half-life and bioavailability values is ChEMBL document CHEMBL3994576, “Targeting Alzheimer's disease by investigating previously unexplored chemical space surrounding the cholinesterase inhibitor donepezil” (Eur J Med Chem, 2017).

One data set relates to SH-SY5Y. The data set can be described thus: cells. The class given is ADME, cell-based. The conditions noted are these: Homo sapiens, 72 h.
The target of the next data set is Acetylcholinesterase (Electrophorus electricus, UniProt O42275). The data set can be described thus: Inhibition of electric eel AChE using acetylthiocholine iodide as substrate by Ellman's method. (DTNB colorimetry detects thiols as they appear.)
Sequence of Acetylcholinesterase (O42275 whole entry): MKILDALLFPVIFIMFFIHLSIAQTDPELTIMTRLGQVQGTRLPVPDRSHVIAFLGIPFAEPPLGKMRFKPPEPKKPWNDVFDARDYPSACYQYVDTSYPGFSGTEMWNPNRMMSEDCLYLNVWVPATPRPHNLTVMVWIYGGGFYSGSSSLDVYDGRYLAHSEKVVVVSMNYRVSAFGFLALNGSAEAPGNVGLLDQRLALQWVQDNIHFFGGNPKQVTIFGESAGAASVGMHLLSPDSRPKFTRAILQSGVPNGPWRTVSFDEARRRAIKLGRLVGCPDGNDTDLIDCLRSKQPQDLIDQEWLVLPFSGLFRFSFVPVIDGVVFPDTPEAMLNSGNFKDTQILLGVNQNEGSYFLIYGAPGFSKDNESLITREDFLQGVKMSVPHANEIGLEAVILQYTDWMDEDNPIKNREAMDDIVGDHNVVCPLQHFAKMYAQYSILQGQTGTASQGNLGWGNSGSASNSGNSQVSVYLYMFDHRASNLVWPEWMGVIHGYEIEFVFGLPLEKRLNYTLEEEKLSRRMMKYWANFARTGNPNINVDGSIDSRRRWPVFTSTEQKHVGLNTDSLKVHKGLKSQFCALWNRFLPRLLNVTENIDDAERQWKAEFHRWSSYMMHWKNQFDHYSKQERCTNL
Data set [1] in a line: Elimination half life in human. In kind it is ADME. The following applies: read-out: beta t1/2.
The next data set is described as follows: clinical. The following applies: human, in vivo, po.

Each structure is given as a SMILES string.

A word on the IC50: it is the concentration needed to halve the response being measured. Take `COc1cc2c(cc1OC)C(=O)C(CC1CCCCN1Cc1ccccc1)C2` (stereo not given): the half-maximal inhibitory concentration (IC50) in the data set on SH-SY5Y is over 100 µM; against Acetylcholinesterase, 0.46 µM.

As to `COc1cc2c(cc1OC)C(=O)C(C(=O)OCC1CCCCN1Cc1ccccc1)C2` (stereo not given), the IC50 at Acetylcholinesterase is over 10 µM. Turning to `COc1cc2c(cc1OC)C(=O)/C(=C/C1CCCN1Cc1ccccc1)C2` (stereo not given), the IC50 in the data set with SH-SY5Y was 19 µM; against Acetylcholinesterase, over 10 µM. As for `COc1cc2c(cc1OC)C(=O)C(C(=O)OCC1CN(Cc3ccccc3)C1)C2` (stereo not given), the results for the IC50 in the data set with SH-SY5Y and against Acetylcholinesterase were over 100 µM and over 10 µM, respectively.

In the case of `COc1cc2c(cc1OC)C(=O)C(C(=O)OCC1CCCN(Cc3ccccc3)C1)C2` (stereo not given), on Acetylcholinesterase, the IC50 was over 10 µM.

At Acetylcholinesterase, `COc1cc2c(cc1OC)C(=O)C(C[C@@H]1CCCN1Cc1ccccc1)C2` (stereo not given in full) displayed an IC50 of 3.16 µM.

For the molecule `COc1cc2c(cc1OC)C(=O)/C(=C/C1CN1Cc1ccccc1)C2` (stereo not given), at Acetylcholinesterase, the half-maximal inhibitory concentration (IC50) is over 10 µM.

On Acetylcholinesterase, `COc1cc2c(cc1OC)C(=O)/C(=C/C1CCCCN1Cc1ccccc1)C2` (stereo not given) displayed an IC50 of 0.75 µM. Still for that read-out and setting: next, `COc1cc2c(cc1OC)C(=O)C(C(=O)OCC1CN1Cc1ccccc1)C2` (stereo not given): over 10 µM. In the case of `COc1cc2c(cc1OC)C(=O)C(CC1CN(Cc3ccccc3)C1)C2` (stereo not given), the IC50 in the data set on SH-SY5Y came out at 8.01 µM; at Acetylcholinesterase, 1.13 µM.

The molecule `COc1cc2c(cc1OC)C(=O)C(C(=O)OCC1CCCN1Cc1ccccc1)C2` (stereo not given) yielded an IC50 on Acetylcholinesterase of over 10 µM. The molecule `COc1cc2c(cc1OC)C(=O)C(C(=O)OCC1CCN(Cc3ccccc3)CC1)C2` (stereo not given) had an IC50 against Acetylcholinesterase of over 10 µM. Take `COc1cc2c(cc1OC)C(=O)/C(=C/C1CCN(Cc3ccccc3)CC1)C2`: the IC50 with SH-SY5Y turned out to be 3.99 µM; against Acetylcholinesterase, 0.42 µM. In the case of `COc1cc2c(cc1OC)C(=O)C(C(=O)OC1CCN(Cc3ccccc3)CC1)C2` (stereo not given), the results for the half-inhibitory concentration (IC50) in the data set with SH-SY5Y and against Acetylcholinesterase were over 100 µM and 3.03 µM, respectively.

Regarding `COc1cc2c(cc1OC)C(=O)C(CC1CCN(Cc3ccccc3)C1)C2` (stereo not given), at Acetylcholinesterase, half-maximal inhibition (IC50) was put at 1.74 µM. Turning to `COc1cc2c(cc1OC)C(=O)C(C(=O)C1CCN(Cc3ccccc3)CC1)C2` (stereo not given), the IC50 in the data set on SH-SY5Y is 63.9 µM; on Acetylcholinesterase, 0.66 µM. The molecule `COc1cc2c(cc1OC)C(=O)/C(=C/C1CCN1Cc1ccccc1)C2` (stereo not given) came in with an IC50 against Acetylcholinesterase of over 10 µM. For orientation: bioavailability means the share of a dose that reaches the circulation, judged against a reference dose that is usually intravenous. A high value points to much systemic uptake. Turning to `COc1cc2c(cc1OC)C(=O)C(CC1CCN(Cc3ccccc3)CC1)C2` (stereo not given) [DONEPEZIL], in data set [1], the half-life was 70 to 80 h. This molecule yielded an IC50 in the data set on SH-SY5Y of 15.5 µM. The bioavailability in the data set “clinical” was 100%. `COc1cc2c(cc1OC)C(=O)C(C(=O)OCC1CCN(Cc3ccccc3)C1)C2` (stereo not given): on Acetylcholinesterase, the IC50 was over 10 µM.

On to `COc1cc2c(cc1OC)C(=O)C(OC(=O)C1CCN(Cc3ccccc3)CC1)C2` (stereo not given), for which the IC50 in the data set with SH-SY5Y was over 100 µM.

For the molecule `COc1cc2c(cc1OC)C(=O)/C(=C/C1CCCN(Cc3ccccc3)C1)C2` (stereo not given), the IC50 was 4.72 µM in the data set on SH-SY5Y and 1.18 µM against Acetylcholinesterase. For `COc1cc2c(cc1OC)C(=O)C(CC1CCN1Cc1ccccc1)C2` (stereo not given), in that order: 58.5 µM and over 10 µM. The matching figures for `COc1cc2c(cc1OC)C(=O)C(CC1CCCN(Cc3ccccc3)C1)C2` (stereo not given): 66.7 µM and 0.51 µM.

Turning to `COc1cc2c(cc1OC)C(=O)/C(=C/C1CN(Cc3ccccc3)C1)C2`, the half-inhibitory concentration (IC50) in the data set with SH-SY5Y was 1.26 µM; at Acetylcholinesterase it was 0.7 µM.

Turning to `COc1cc2c(cc1OC)C(=O)C(C(=O)OCC1CCN1Cc1ccccc1)C2` (stereo not given), the IC50 on Acetylcholinesterase is over 10 µM. Turning to `COc1cc2c(cc1OC)C(=O)/C(=C/C1CCN(Cc3ccccc3)C1)C2` (stereo not given), the results for the IC50 in the data set with SH-SY5Y and at Acetylcholinesterase were 6.59 µM and 0.52 µM, respectively.
